Test results as given in ChEMBL document CHEMBL1201862, “PubChem BioAssay data set” (2004).
Where a name gives a salt, the structure may show the parent alone. Values belong to the molecule of their own block, whether it stands above or below them. Active and inactive are the calls of the source.

Tests used:
Fatty acid synthase [1] = target: T1, Fatty acid synthase (Homo sapiens, UniProt P49327); assay: inhibition of human FAS-TE enzyme activity – biochemical, endpoint fluorescence intensity, uHTS hits, dose response (AID 624327); format: functional;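 also: fluorescence from hydrolysis of an O-methyl fluorescein acyl ester substrate by the enzyme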
Fatty acid synthase [2] = target: T1, Fatty acid synthase; assay: inhibition of human FAS-TE enzyme activity – biochemical, kinetic fluorescence intensity, dose response (AID 624326); format: functional;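 also: rate of fluorescence rise from hydrolysis of a fluorogenic O-methyl fluorescein ester substrate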
Protein skinhead-1 = target: T2, Protein skinhead-1 (Caenorhabditis elegans, UniProt P34707); format: functional
T2 sequence (P34707 whole entry): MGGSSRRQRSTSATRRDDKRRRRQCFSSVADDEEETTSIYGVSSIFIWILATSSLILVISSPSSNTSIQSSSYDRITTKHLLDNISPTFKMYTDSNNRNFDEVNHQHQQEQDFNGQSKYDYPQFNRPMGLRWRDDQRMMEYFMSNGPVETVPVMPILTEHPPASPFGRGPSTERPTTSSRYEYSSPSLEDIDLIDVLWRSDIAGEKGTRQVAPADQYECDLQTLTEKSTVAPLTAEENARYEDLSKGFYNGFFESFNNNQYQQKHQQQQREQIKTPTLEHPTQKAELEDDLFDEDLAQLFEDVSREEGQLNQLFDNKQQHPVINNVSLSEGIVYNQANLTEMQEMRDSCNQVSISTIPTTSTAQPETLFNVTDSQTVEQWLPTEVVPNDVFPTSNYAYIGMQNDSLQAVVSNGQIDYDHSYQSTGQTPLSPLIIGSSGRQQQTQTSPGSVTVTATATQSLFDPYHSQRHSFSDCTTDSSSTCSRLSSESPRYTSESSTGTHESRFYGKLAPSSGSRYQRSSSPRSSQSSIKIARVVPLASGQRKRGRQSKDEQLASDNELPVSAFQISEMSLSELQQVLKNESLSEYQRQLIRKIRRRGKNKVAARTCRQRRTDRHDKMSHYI

[3] = viability of uninfected HEp-2 cells – cell-based, HTS, cytotoxicity control for RSV inhibitor project, dose response (AID 2410); format: functional; conditions: human respiratory syncytial virus
[4] = target: T3, Sentrin-specific protease 8 (Homo sapiens, UniProt Q96LD8); format: functional
T3 sequence (Q96LD8 whole entry): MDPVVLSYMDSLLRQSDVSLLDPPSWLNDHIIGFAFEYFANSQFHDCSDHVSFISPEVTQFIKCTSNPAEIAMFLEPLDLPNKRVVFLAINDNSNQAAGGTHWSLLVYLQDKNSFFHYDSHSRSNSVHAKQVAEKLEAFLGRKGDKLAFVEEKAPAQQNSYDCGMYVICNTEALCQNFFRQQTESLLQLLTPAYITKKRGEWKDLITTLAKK

[5] = target: T3, Sentrin-specific protease 8; format: functional; remark: listed apart in the source
cells [6] = assay: cells
[7] = target: T4, Small ubiquitin-related modifier 1 (Homo sapiens, UniProt P63165); assay: SUMO1 protein interaction blockers, potency – biochemical, fluorescence polarization, uHTS hits, dose response (AID 624382); format: functional; conditions: read-out: IC50_Mean
[8] = target: T4, Small ubiquitin-related modifier 1; assay: SUMO1 protein-protein binding blockers, potency – biochemical, FRET, dose response (AID 624383); format: functional; conditions: read-out: IC50_Mean
Escherichia coli [9] = assay: microbe, parasite or virus in culture
Escherichia coli [10] = assay: microbe, parasite or virus in culture; remark: listed apart in the source
[11] = activation of miR-122 Renilla sensor silencing – cell-based, Huh7 psiCHECK-miR122, Renilla luciferase, cherry-picked, dose response (AID 651956); format: functional;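 also: huh7 hepatoma cells stably carrying a psiCHECK-2 miR-122 sensor plasmid; renilla luciferase signal reporting endogenous miR-122 activity after 48 h compound exposure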
[12] = blockers of HIV-1 envelope-mediated cell-cell fusion – cherry-pick, dose response (AID 652057); format: functional, cell-based
[13] = blockers of HIV-1 ZM109 envelope-driven cell-cell fusion – HeLa effector, CEM target cells, luciferase, cherry-pick, dose response (AID 652058); format: functional, cell-based;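 also: luciferase signal from HIV-1 Env mediated cell-cell fusion of effector and target cells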
[14] = off-target signal loss in HeLa-CEM21 co-culture – HeLa F-luc CTL cells, cherry-picked, counter-screen for HIV-1 Env fusion inhibitor project, dose response (AID 652040); format: functional, cell-based;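 also: potency for signal decrease marking cytotoxic or nonspecific inhibition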
[15] = viability loss in CEM21 cells – cell-based, CellTiter-Glo luminescence, cherry-picked, cytotoxicity control for viral fusion inhibitor project, dose response (AID 652042); format: functional;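 also: potency for signal decrease meaning cytotoxicity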
[16] = HIV-1 AD8 envelope cell-cell fusion blockers – cherry-pick, dose response (AID 652062); format: functional, cell-based;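 also: luciferase signal from cell-cell fusion driven by HIV-1 clade B AD8 Env; potency is for inhibitors of fusion seen as a drop in luminescence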
[17] = target: T5, Trace amine-associated receptor 1 (Homo sapiens, UniProt Q96RJ0); assay: Fluorescence-based cell-based high throughput dose response assay to identify agonists of the human trace amine associated receptor 1 (TAAR1).; format: functional
T5 sequence (Q96RJ0 whole entry): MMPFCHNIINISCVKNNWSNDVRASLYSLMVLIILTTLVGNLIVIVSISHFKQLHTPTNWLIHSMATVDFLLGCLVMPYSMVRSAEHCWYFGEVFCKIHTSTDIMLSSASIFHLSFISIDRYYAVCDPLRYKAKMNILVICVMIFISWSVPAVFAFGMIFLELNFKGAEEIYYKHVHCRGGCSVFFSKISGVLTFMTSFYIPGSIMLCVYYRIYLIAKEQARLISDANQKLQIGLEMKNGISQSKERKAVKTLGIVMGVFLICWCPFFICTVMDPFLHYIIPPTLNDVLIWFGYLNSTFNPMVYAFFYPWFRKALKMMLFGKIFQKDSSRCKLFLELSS

[18] = target: T5, Trace amine-associated receptor 1; assay: Counterscreen for agonists of the human trace amine associated receptor 1 (hTAAR1): Fluorescence-based cell-based high throughput dose response assay to identify hTAAR1 agonist that also desensitize TAAR1 receptor response.; format: functional
cells [19] = format: functional, cell-based
cells [20] = format: functional, cell-based; remark: listed apart in the source

T1 sequence (P49327 whole entry): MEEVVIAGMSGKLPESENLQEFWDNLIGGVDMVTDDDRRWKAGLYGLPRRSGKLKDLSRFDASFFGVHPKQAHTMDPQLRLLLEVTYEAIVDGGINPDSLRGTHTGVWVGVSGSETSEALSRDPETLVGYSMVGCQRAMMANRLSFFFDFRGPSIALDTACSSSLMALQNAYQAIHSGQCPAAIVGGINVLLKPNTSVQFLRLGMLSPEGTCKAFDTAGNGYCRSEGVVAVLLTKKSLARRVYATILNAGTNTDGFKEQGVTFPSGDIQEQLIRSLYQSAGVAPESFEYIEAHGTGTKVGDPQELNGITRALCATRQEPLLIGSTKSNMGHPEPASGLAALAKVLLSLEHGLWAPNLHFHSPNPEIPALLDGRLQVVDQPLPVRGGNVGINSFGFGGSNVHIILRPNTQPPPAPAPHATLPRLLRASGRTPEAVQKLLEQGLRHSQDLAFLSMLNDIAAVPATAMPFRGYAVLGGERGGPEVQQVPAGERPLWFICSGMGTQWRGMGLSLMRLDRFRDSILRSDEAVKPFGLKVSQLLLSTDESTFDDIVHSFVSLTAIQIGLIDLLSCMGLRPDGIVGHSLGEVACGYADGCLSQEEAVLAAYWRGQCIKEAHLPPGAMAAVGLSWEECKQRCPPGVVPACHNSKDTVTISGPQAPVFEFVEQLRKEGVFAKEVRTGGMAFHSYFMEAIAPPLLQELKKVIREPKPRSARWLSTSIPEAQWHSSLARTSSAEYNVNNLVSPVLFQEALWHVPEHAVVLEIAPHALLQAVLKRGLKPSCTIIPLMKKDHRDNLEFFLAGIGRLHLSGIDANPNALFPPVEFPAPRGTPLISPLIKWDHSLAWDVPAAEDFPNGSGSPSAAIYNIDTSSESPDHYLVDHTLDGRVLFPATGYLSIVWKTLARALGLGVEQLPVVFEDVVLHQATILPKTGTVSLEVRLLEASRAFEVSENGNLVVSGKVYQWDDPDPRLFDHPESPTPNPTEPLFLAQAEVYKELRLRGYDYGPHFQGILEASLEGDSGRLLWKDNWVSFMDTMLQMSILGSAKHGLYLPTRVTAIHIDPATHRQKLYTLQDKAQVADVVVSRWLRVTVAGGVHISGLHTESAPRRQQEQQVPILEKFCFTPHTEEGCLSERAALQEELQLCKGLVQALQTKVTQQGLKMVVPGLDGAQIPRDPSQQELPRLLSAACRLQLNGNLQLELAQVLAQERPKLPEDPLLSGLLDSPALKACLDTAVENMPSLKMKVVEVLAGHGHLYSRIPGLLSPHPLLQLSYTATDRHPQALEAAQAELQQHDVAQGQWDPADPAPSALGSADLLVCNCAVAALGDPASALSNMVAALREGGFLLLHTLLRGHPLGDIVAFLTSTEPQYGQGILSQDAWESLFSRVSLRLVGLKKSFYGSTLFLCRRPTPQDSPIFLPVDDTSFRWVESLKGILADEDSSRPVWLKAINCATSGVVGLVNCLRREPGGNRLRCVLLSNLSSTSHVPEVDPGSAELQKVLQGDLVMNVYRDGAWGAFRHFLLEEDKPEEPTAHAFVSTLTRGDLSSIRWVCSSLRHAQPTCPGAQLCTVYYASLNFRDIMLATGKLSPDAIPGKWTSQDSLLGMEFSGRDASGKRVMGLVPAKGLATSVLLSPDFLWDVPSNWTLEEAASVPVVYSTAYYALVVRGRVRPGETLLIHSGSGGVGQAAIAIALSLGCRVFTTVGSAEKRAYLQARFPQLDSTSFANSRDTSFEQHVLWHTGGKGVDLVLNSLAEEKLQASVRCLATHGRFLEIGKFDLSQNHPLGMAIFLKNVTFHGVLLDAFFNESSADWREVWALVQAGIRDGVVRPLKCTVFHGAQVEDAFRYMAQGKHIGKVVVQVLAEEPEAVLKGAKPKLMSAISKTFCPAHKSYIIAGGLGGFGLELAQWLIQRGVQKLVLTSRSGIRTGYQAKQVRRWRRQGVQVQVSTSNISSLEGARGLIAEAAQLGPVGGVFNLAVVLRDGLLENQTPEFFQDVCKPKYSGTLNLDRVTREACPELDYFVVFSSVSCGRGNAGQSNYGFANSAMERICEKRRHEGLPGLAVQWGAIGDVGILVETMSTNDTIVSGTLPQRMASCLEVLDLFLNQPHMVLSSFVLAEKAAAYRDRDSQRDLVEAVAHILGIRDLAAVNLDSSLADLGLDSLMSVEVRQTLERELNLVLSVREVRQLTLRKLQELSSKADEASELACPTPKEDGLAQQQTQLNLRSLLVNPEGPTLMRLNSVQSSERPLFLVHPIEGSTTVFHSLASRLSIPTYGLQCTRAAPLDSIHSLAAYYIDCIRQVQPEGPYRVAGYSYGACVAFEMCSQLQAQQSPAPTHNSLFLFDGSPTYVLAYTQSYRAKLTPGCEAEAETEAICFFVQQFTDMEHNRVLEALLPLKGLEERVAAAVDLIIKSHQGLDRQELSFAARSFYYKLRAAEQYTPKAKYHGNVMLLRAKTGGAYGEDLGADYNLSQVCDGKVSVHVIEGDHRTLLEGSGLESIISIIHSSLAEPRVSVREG
T4 sequence (P63165 whole entry): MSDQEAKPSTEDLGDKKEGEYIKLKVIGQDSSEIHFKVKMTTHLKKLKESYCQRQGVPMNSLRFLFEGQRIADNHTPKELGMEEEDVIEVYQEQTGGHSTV

IC50 (Fatty acid synthase [1]): 3.96 µM (active)
IC50 (Fatty acid synthase [2]): 4.64 µM (active)
SMILES: CCCCCn1c(CN2CCN(c3cccc(Cl)c3)CC2)nc2c1c(=O)n(C)c(=O)n2C

IC50 (Protein skinhead-1): > 100 µM (inactive)
SMILES: O=C(Nc1cc2nn(-c3ccccc3)nc2cc1Cl)c1ccco1

IC50 (Protein skinhead-1): 25.1 µM (active)
SMILES: Fc1ccccc1-c1nc(-c2ccncc2)no1

SMILES: CCn1c2ccc(C)cc2c2nnc(NN)nc21
CC50 [3]: 32.3 µM (active)
IC50 [4]: > 100 µM (inactive)
IC50 [5]: 8.84 µM (active)
IC50 (cells [6]): 17.4 µM (active)

SMILES: CC(=O)c1c(C)[nH]c(C(=O)OCC(=O)c2ccc3c(c2)NC(=O)CO3)c1C
IC50 [7]: > 66.6 µM (inactive)
IC50 [8]: 6.39 µM (active)

IC50 (Fatty acid synthase [1]): 11.5 µM (active)
IC50 (Fatty acid synthase [2]): 7.56 µM (active)
SMILES: COCCCNC(=O)CC1C[C@H](C(=O)N2CCOCC2)[C@@]2(CCC3CCCC3)c3[nH]c4ccc(OC)cc4c3CCN2C1=O (some centres not stated)

SMILES: Cc1n[nH]c(-c2cccnc2)c1N=NN(C)C
AC50 (Escherichia coli [9]): 2.15 µM (active)
AC50 (Escherichia coli [10]): 0.628 µM (active)

SMILES: C/C=C/c1ccc([C@@H]2[C@@H](CO)N(C(C)=O)[C@@H]2CN(C)C(=O)c2ccccn2)cc1
AC50 [11]: 39.6 µM (active)

SMILES: CN1C(=O)c2cc(NC(=O)Nc3cccc(Cl)c3)ccc2OC[C@H]2O[C@@H](CC(=O)NCCc3ccncc3)CC[C@H]21
AC50 [11]: 31.4 µM (active)

SMILES: CCCCCNC(=O)C(c1ccncc1)n1c(=O)c(-c2cc3ccccc3[nH]2)nc2ccccc21 (configuration not stated)
AC50 [12]: 2.62 µM (active)
AC50 [13]: 4.68 µM (active)
AC50 [14]: 4 µM (active)
AC50 [15]: 31.9 µM (active)
AC50 [16]: 7.8 µM (active)

SMILES: COc1ccc(-c2cc(=O)c3c(C)cc(O)cc3o2)cc1
IC50 [7]: > 66.6 µM (inactive)
IC50 [8]: 8.68 µM (active)

SMILES: c1ccc2c(CC3=NCCN3)cccc2c1 [NAPHAZOLINE HYDROCHLORIDE]
EC50 [17]: 0.14 µM (active)
IC50 [18]: 1.15 µM (active)
IC50 (cells [19]): > 29.9 µM (inactive)
EC50 (cells [20]): > 29.9 µM (inactive)
